Measurements reported in patent publication US6908734B2, “Sulfated CCR5 peptides for HIV-1 infection” (priority 2000, dated 2005).
Where no end group is shown, it is not given here. [ ]: non-standard residue; d: D form. The star is where a group is joined. Biotin = O=C1N[C@H]2[C@H](CS[C@H]2CCCCC(=O)*)N1; sY = N[C@@H](Cc1ccc(OS(=O)(=O)O)cc1)C(=O)O; pY = N[C@@H](Cc1ccc(OP(=O)(O)O)cc1)C(=O)O

Tests used:
PA11 = experiment: ELISA: direct binding of anti-CCR5 MAb PA11 to peptides; design: species or system murine
Description: (§1) In a competition ELISA, peptides were captured onto the plates as described above. Inhibitor or assay buffer was added for 1 h prior to addition of gp120JR-FL/CD4-IgG2 complex (1 nM) for an additional h at room temperature. The assay was then completed as described above. Direct binding of anti-CCR5 murine MAbs to the peptides was examined as described above except that MAb was substituted for gp120/CD4-IgG2 complex and a goat anti-mouse HRP-coupled antibody was used for detection.

[1] = tested on: V3 loop-deleted gp120JR-FL/CD4-IgG2; experiment: CCR5 Nt peptide ELISA with V3 loop-deleted gp120JR-FL/CD4-IgG2; type: binding, HIV-1
Description: (§2) Streptavidin-coated ELISA plates (Pierce, Rockford, Ill.) were blocked with D-PBS/5% BSA for 2 hours at room temperature then washed three times with assay buffer (D-PBS/0.5% Tween 20/1% Fetal Bovine Serum/2% BSA). Plates were then contacted with sulfo- or phospho-peptides (1 μg/ml) for 1 hour at room temperature and washed three times with assay buffer. […] The plates were developed using the TMB substrate as described above.

PA14 = experiment: ELISA: direct binding of anti-CCR5 MAb PA14 to peptides; design: species or system murine
Description: as §1

gp120JR-FL/CD4-IgG2 = experiment: CCR5 Nt peptide ELISA with gp120JR-FL/CD4-IgG2; type: binding, HIV-1; conditions: peptide 1 μg/ml on streptavidin plate
Description: as §2

PA10 = experiment: ELISA: direct binding of anti-CCR5 MAb PA10 to peptides; design: species or system murine
Description: as §1

gp120LAI/CD4-IgG2 = gp120LAI/CD4-IgG2 (Human immunodeficiency virus type 1 group M subtype B, UniProt P03377); conditions: peptide 1 μg/ml on streptavidin plate
Description: Streptavidin-coated ELISA plates (Pierce, Rockford, Ill.) were blocked with D-PBS/5% BSA for 2 hours at room temperature then washed three times with assay buffer (D-PBS/0.5% Tween 20/1% Fetal Bovine Serum/2% BSA). Plates were then contacted with sulfo- or phospho-peptides (1 μg/ml) for 1 hour at room temperature and washed three times with assay buffer. Mixtures of CD4-IgG2 (50 nM) and purified gp120 or gp120-containing supernatants in a 1:4 molar ratio were added to the plates for 1 hour at room temperature. Plates were washed three times and (HRP)-conjugated goat anti-human IgG was used to detect the presence of bound CD4-IgG2. The plates were developed using the TMB substrate as described above. Gp120/CD4-IgG2 binding to the peptides was normalized for CD4-IgG2binding to the mutant gp120 proteins.

PA12 = experiment: ELISA: direct binding of anti-CCR5 MAb PA12 to peptides; design: species or system murine
Description: as §1

CD4-IgG2 = CD4-IgG2 (Homo sapiens, UniProt P01730+P01834+P01859); experiment: CCR5 Nt peptide ELISA with CD4-IgG2 alone; type: binding
Description: as §2

[2] = tested on: gp120JR-FL alanine mutants/CD4-IgG2; experiment: ELISA: binding of gp120JR-FL alanine mutant/CD4-IgG2 complexes to sulfopeptide 2-18; design: species or system HIV-1
Description: Mutant gp120 proteins were generated using the QuickChange Kit from Stratagene (San-Diego, Calif.). Gp120JR-FL, cloned into the pPPI4 expression vector [4], served as the template for site directed mutagenesis. Nucleotide sequencing was performed to ascertain the presence of the appropriate mutation in the gp120 coding sequence. 293T cells were calcium phosphate transfected with the different mutant gp120 expression constructs. Supernatants containing soluble gp120 proteins were harvested and cleared of debris by centrifugation 24 hours post-transfection. Quantification of gp120 was performed by ELISA as previously described). Briefly, 293T supernatants were boiled for 5 minutes and denatured gp120 was captured on an ELISA plate coated with D7324 (International Enzymes Inc. Fallbrook, Calif.), a MAb that recognizes a 15 residue linear epitope in the carboxy-terminal end of gp120. Captured gp120 was detected by a mixture of anti-gp120 MAbs B12 and B13 [40], followed by incubation with a horseradish peroxidase-conjugated (HRP) anti-mouse IgG antibody (Amersham Pharmacia, Piscataway, N.J.). Optical density (O.D.) was measured at 450 nm using the ImmunoPure TMB Substrate kit (Pierce, Rockford, Ill.).
CD4-IgG2 binding to non-denatured mutant gp120 proteins also was measured. Plates coated with D7324 were used to capture native gp120 from supernatants of transiently transfected 293T cells. CD4-IgG2 (50 nM) was added to the plates and its binding was detected using an HRP-conjugated goat anti-human IgG and TMB substrate as described above.

PA8 = experiment: ELISA: direct binding of anti-CCR5 MAb PA8 to peptides; design: species or system murine
Description: as §1

gp120DH123/CD4-IgG2 = experiment: CCR5 Nt peptide ELISA with gp120DH123/CD4-IgG2; type: binding, HIV-1; conditions: peptide 1 μg/ml on streptavidin plate
Description: as §2

[3] = molecular target: T1, gp120JR-FL/CD4-IgG2 binding to the sulfopeptide 2-18 (Homo sapiens, UniProt P51681); experiment: Competition ELISA: gp120JR-FL/CD4-IgG2 binding to sulfopeptide 2-18; design: species or system HIV-1; conditions: complex 1 nM, up to supraphysiologic concentrations
T1 construct: a peptide spanning CCR5 residues 2-18 and containing sulfotyrosines in positions 10 and 14; host or cells: peptide synthetic
Description: as §1

[4] = molecular target: T2, gp120/CD4 binding to cell surface CCR5 (Homo sapiens, UniProt P51681); conditions: cited from earlier work
T2 construct: Supernatants containing soluble gp120 proteins were harvested; made in house; host or cells: gp120: 293T supernatants; CCR5: L1.2-CCR5+ cells
T2 sequence (P51681 whole entry): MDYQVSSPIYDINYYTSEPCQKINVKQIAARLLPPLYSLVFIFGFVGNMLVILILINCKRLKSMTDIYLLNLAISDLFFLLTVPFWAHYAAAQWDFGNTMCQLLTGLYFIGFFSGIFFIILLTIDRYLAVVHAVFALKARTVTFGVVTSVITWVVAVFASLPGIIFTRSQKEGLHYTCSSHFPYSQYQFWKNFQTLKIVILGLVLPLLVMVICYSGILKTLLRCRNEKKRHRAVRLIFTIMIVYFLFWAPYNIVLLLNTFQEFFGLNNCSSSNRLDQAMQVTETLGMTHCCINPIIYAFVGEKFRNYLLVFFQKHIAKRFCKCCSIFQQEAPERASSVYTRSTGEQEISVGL

Molecule	Binding of PA11 to peptide (ELISA) (PA11)	Binding of V3 loop-deleted gp120JR-FL/CD4-IgG2 to peptide (ELISA) [1]	Binding of PA14 to peptide (ELISA) (PA14)	Binding of gp120JR-FL/CD4-IgG2 to peptide (ELISA) (gp120JR-FL/CD4-IgG2)	Binding of PA10 to peptide (ELISA) (PA10)	Binding of gp120LAI/CD4-IgG2 to peptide (ELISA) (gp120LAI/CD4-IgG2)	Binding of PA12 to peptide (ELISA) (PA12)	Binding of CD4-IgG2 alone to peptide (ELISA) (CD4-IgG2)	Effect of V3 loop crown residues on gp120 binding to the sulfopeptide ([2]; alanine mutants in the crown of the V3 loop, including the GPGR motif)	Decrease of complex binding to the sulfopeptide by C4 alanine substitutions ([2]; alanine substitutions of R419, I420, K421, Q422 and R444)	Effect of alanine substitutions of R440 and R469 on complex binding ([2]; gp120 R440A, R469A)	Decrease of complex binding to the peptide by V3 loop stem alanine mutants ([2]; gp120 alanine mutants R298, N301, T303, I322, D324, I325, R326, normalized for CD4-IgG2 binding) [fold]	Effect of alanine substitutions in other regions of gp120 on complex-peptide interactions ([2]; other regions of gp120)	Binding of PA8 to peptide (ELISA) (PA8)	Binding of gp120DH123/CD4-IgG2 to peptide (ELISA) (gp120DH123/CD4-IgG2)	Inhibition of gp120JR-FL/CD4-IgG2 binding to the sulfopeptide 2-18 [3]	Block of gp120/CD4 binding to CCR5 [4]
2-18: peptide spanning CCR5 residues 2-18, sulfotyrosines in positions 10 and 14, carboxy terminal GAG spacer and biotinylated lysine (DYQVSSPI[sY]DIN[sY]YTSEGAGK(Biotin))	binds moderately	did not measurably bind	does not recognize	strongest binding	binds avidly	did not measurably bind	weak	did not measurably bind	no effect	5-10 fold	increased complex binding	> 10	None of the alanine substitutions that we introduced in the other regions of gp120 significantly affected	avidly binds			
2-18(P): analogous CCR5 Nt phosphopeptide, residues 2-18, phosphotyrosines in positions 10 and 14, GAG spacer, biotinylated lysine (DYQVSSPI[pY]DIN[pY]YTSEGAGK(Biotin))	weakly		does not recognize	No binding was observed	moderately	No binding was observed	undetectable							avidly binds	No binding was observed		
Cc1ccc(-c2ccc3c(c2)C=C(C(=O)Nc2ccc(C[N+](C)(C)C4CCOCC4)cc2)CCC3)cc1.[Cl-] [TAK-779]																not inhibited	block
